From patent publication US20240174679A1, “HETEROAROYL AMIDES AS LRRK2 INHIBITORS, PHARMACEUTICAL COMPOSITIONS, AND USES THEREOF” (MERCK SHARP & DOHME LLC, priority 2021, published 2024)

molecular target: GST tagged truncated human mutant G2019S LRRK2 (Homo sapiens (Human), UniProt Q5S007, G2019S); test: LRRK2 Km ATP LanthaScreen Assay; format: biochemical; conditions: 134 μM ATP (Km ATP), LRRKtide substrate, negative log of mean IC50 (molar)
Protocol: Unless otherwise noted, all reactions are magnetically stirred. Unless otherwise noted, when diethyl ether is used in the experiments described below, it is Fisher ACS certified material and is stabilized with BHT. Unless otherwise noted, “concentrated” and/or “solvent removed under reduced pressure” means evaporating the solvent from a solution or mixture using a rotary evaporator or vacuum pump. Unless otherwise noted, flash chromatography is carried out on a Teledyne Isco (Lincoln, NE), Analogix (Burlington, WI), or Biotage (Stockholm, SWE) automated chromatography system using a commercially available cartridge as the column. Columns may be purchased from Teledyne Isco, Analogix, Biotage, Varian (Palo Alto, CA), or Supelco (Bellefonte, PA) and are usually filled with silica gel as the stationary phase. Reversed phase preparative HPLC conditions, where used, can be found at the end of each experimental section. Aqueous solutions were concentrated on a Genevac (Ipswich, ENG) or by freeze-drying/lyophilization. Unless otherwise noted, all LRRK2 pIC50 data presented in tables refers to the LRRK2 G2019S Km ATP LanthaScreen™ assay (Life Technologies Corp., Carlsbad, CA) that is described in the Biological Assay section.
Biological Assay: LRRK2 Km ATP LanthaScreen™ Assay
Compound potency against LRRK2 kinase activity was determined using LanthaScreen™ technology from Life Technologies Corporation (Carlsbad, CA) using a GST20 tagged truncated human mutant G2019S LRRK2 in the presence of the fluorescein-labeled peptide substrate LRRKtide® (LRRK2 phosphorylated ezrin/radixin/moesin (ERM)), also from Life Technologies. The data presented for the Km ATP LanthaScreen™ Assay represents mean IC50 values based on several test results and may have reasonable deviations depending on the specific conditions and reagents used. Km is the Michaelis constant of an enzyme and is defined as the concentration of native substrate (ATP for a kinase) which permits the enzyme to achieve half Vmax (Vmax=rate of reaction when the enzyme is saturated with substrate). IC50 (half-maximal inhibitory concentration) represents the concentration of inhibitor required to inhibit LRRK2 kinase activity by 50%. Assays were performed in the presence of 134 μM ATP (Km ATP). Upon completion, the assay was stopped, and phosphorylated substrate detected with a terbium (Tb)-labeled anti-pERM antibody (cat. no. PV4898). The compound dose response was prepared by diluting a 10 mM stock of compound to a maximum concentration of 9.99 μM in 100% DMSO, followed by custom fold serial dilution in DMSO nine times. 20 nL of each dilution was spotted via a Labcyte Echo onto a 384-well black-sided plate (Corning 3575) followed by 15 μL of a 1.25 nM enzyme solution in 1× assay buffer (50 mM Tris pH 8.5, 10 mM MgCl2, 0.01% Brij-35, 1 mM EGTA, 2 mM dithiothreitol, 0.05 mM sodium orthovanadate). Following a 15-min incubation period at rt, the kinase reaction was started with the addition of 5 μL of 400 nM fluorescein-labeled LRRKtide® (LRRK2 phosphorylated ezrin/radixin/moesin (ERM)) peptide substrate and 134 μM ATP solution in 1× assay buffer. The reaction was allowed to progress at ambient temperature for 90 min. The reaction was then stopped by the addition of 20 μL of TR-FRET Dilution Buffer (Life Technologies, Carlsbad, CA) containing 2 nM Tb-labeled anti-phospho LRRKtide® (LRRK2 phosphorylated ezrin/radixin/moesin (ERM)) antibody and 10 mM EDTA (Life Technologies, Carlsbad, CA). After an incubation period of 1 h at rt, the plate was read on an EnVision® multimode plate reader (Perkin Elmer, Waltham, MA) with an excitation wavelength of 337 nm (Laser) and a reading emission at both 520 and 495 nm. Compound IC50 values were interpolated from nonlinear regression best-fits of the log of the final compound concentration, plotted as a function of the 520/495-nm emission ratio using activity base “Abase”). Abase uses a 4 parameter (4P) logistic fit based on the Levenberg-Marquardt algorithm. […]

GST tagged truncated human mutant G2019S LRRK2, sequence (Q5S007 970-2527 G2019S): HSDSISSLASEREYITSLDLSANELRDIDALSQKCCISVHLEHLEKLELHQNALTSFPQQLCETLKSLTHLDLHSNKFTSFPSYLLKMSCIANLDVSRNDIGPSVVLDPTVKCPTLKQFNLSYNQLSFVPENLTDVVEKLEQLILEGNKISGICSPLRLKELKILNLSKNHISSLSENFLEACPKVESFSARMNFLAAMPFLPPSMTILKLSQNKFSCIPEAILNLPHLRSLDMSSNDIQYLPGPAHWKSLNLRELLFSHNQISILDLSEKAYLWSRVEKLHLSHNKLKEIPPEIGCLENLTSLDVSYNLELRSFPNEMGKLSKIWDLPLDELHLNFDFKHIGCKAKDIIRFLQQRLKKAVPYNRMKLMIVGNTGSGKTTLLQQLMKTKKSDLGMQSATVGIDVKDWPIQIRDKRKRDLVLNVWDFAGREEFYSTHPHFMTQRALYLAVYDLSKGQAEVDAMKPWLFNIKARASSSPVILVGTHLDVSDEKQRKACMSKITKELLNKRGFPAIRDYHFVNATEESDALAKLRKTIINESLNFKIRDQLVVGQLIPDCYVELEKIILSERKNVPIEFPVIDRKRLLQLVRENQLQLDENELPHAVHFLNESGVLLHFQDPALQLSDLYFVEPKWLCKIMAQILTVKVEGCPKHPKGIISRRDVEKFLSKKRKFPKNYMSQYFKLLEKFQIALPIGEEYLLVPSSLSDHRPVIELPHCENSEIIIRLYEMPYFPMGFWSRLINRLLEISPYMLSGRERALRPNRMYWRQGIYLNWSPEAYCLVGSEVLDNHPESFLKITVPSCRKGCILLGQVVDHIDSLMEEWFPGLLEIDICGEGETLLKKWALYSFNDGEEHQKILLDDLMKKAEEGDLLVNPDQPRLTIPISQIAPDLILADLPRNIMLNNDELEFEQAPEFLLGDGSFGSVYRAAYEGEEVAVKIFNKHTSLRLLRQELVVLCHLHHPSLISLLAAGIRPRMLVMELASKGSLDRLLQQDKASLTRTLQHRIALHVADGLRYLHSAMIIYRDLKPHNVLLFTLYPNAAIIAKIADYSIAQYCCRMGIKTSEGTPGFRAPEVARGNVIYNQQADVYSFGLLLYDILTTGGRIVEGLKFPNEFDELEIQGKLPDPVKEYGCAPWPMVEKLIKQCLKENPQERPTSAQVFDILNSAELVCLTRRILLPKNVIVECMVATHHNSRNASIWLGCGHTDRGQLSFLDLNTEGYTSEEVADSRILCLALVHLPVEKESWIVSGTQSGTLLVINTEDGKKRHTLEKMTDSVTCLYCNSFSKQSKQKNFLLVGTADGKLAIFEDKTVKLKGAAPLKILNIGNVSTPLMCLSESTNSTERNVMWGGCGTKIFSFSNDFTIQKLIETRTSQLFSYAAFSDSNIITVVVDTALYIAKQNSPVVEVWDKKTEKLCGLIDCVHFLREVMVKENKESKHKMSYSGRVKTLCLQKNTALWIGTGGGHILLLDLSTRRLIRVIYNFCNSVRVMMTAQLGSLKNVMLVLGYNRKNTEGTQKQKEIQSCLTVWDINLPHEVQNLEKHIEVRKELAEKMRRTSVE

| SMILES | LRRK2 pIC50 |
| --- | --- |
| Cn1cc(-c2nccc(C(=O)Nc3cnn(C4CCC4)c3)n2)cn1 [Example 9-23, N-(1-cyclobutyl-1H-pyrazol-4-yl)-2-(1-methyl-1H-pyrazol-4-yl)pyrimidine-4-carboxamide] | 7.47 |
| O=C(Nc1cnn(C2CC2)c1)c1cccc(-c2cnn(CC(F)(F)F)c2)n1 [Example 4-1, N-(1-Cyclopropyl-1H-pyrazol-4-yl)-6-(1-(2,2,2-trifluoroethyl)-1H-pyrazol-4-yl)picolinamide] | 7.98 |
| O=C(Nc1cnn(CC2CCC2)c1)c1cccc(-c2cnn(Cc3ccncc3)c2)n1 [Example 9-6, N-[1-(cyclobutylmethyl)-1H-pyrazol-4-yl]-6-[1-(pyridin-4-ylmethyl)-1H-pyrazol-4-yl]pyridine-2-carboxamide] | 6.18 |
| COCC1(Cn2cc(NC(=O)c3csc(-c4cn[nH]c4)n3)cn2)CCC1 [Example 1-29, N-(1-{[1-(methoxymethyl)cyclobutyl]methyl}-1H-pyrazol-4-yl)-2-(1H-pyrazol-4-yl)-1,3-thiazole-4-carboxamide] | 7.82 |
| O=C(Nc1cnn(C[C@@H]2CCNC2)c1)c1csc(-c2cn[nH]c2)n1 [Example 7-30, 2-(1H-pyrazol-4-yl)-N-(1-{[(3R)-pyrrolidin-3-yl]methyl}-1H-pyrazol-4-yl)-1,3-thiazole-4-carboxamide] | 6.25 |
| Cn1cc(NC(=O)c2csc(-c3cn[nH]c3)n2)c(-c2ccc(F)cc2)n1 [Example 1-11, N-[3-(4-fluorophenyl)-1-methy1-1H-pyrazol-4-yl]-2-(1H-pyrazol-4-yl)-1,3-thiazole-4-carboxamide] | 7.90 |
| O=C(Nc1cnn(C2CCC2)c1)c1coc(-c2ccccc2)n1 [Example 4-4, N-(1-cyclobutyl-1H-pyrazol-4-yl)-2-phenyl-1,3-oxazole-4-carboxamide] | 5.68 |
| CCn1cc(-c2nc(C(=O)Nc3cnn(C4CCC4)c3)cs2)cn1 [Example 9-4, N-(1-cyclobutyl-1H-pyrazol-4-yl)-2-(1-ethyl-1H-pyrazol-4-yl)-1,3-thiazole-4-carboxamide] | 7.41 |
| O=C(Nc1cnn(CC2CCNCC2)c1)c1csc(-c2cn[nH]c2)n1 [Example 7-4, N-{1-[(piperidin-4-yl)methyl]-1H-pyrazol-4-yl}-2-(1H-pyrazol-4-yl)-1,3-thiazole-4-carboxamide] | 6.79 |
| CNC(=O)c1nn(C)cc1NC(=O)c1csc(-c2cn[nH]c2)n1 [Example 1-4, N-[1-methyl-3-(methylcarba-moyl)-1H-pyrazol-4-yl]-2-(1H-pyrazol-4-yl)-1,3-thiazole-4-carboxamide] | 8.15 |
| NCC1CCC(F)(Cn2cc(NC(=O)c3csc(-c4cn[nH]c4)n3)cn2)CC1 (centres unmarked) [Example 7-36, N-(1-{[4-(aminomethyl)-1-fluorocyclohexyl]methyl}-1H-pyrazol-4-yl)-2-(1H-pyrazol-4-yl)-1,3-thiazole-4-carboxamide] | 7.65 |
| CSc1nc(C(=O)Nc2cnn(C3CCC3)c2)cs1 [Example 4-5, N-(1-cyclobutyl-1H-pyrazol-4-yl)-2-(methylsulfanyl)-1,3-thiazole-4-carboxamide] | 5.82 |
| O=C(Nc1cnn(-c2ccccc2)c1)c1csc(-c2cn[nH]c2)n1 [Example 1-24, N-(1-phenyl-1H-pyrazol-4-yl)-2-(1H-pyrazol-4-yl)-1,3-thiazole-4-carboxamide] | 7.56 |
| COc1ccncc1-c1cccc(C(=O)Nc2cnn(CC3CCC3)c2)n1 [Example 9-30, N-[1-(cyclobutylmethyl)-1H-pyrazol-4-yl]-4′-methoxy-2,3′-bipyridine-6-carboxamide] | 6.76 |
| O=C(Nc1cnn(C2CC2)c1)c1coc(-c2cn[nH]c2)n1 [Example 1-18, N-(1-cyclopropyl-1H-pyrazol-4-yl)-2-(1H-pyrazol-4-yl)-1,3-oxazole-4-carboxamide] | 6.75 |
| O=C(Nc1cnn(-c2ccncc2)c1)c1csc(-c2cn[nH]c2)n1 [Example 1-8, 2-(1H-pyrazol-4-yl)-N-(1-pyridin-4-yl-1H-pyrazol-4-yl)-1,3-thiazole-4-carboxamide] | 8.07 |
| O=C(Nc1cnn(C2CCC2)c1)c1ccn(-c2ccccc2)n1 [Example 4-7, N-(1-cyclobutyl-1H-pyrazol-4-yl)-1-phenyl-1H-pyrazole-3-carboxamide] | 5.56 |
| Cn1cc(-c2nn(C)cc2NC(=O)c2csc(-c3cn[nH]c3)n2)cn1 [Example 1-31, N-(1,1′-dimethyl-1H,1′H-3,4′-bipyrazol-4-yl)-2-(1H-pyrazol-4-yl)-1,3-thiazole-4-carboxamide] | 7.95 |
| O=C(Nc1cnn(CC2CCC2)c1)c1csc(-c2cn[nH]c2)n1 [Example 7-1, N-(1-(Cyclobutylmethyl)-1H-pyrazol-4-yl)-2-(1H-pyrazol-4-yl)thiazole-4-carboxamide] | 7.76 |
| CC(=O)Nc1nc(C(=O)Nc2cnn(C3CCC3)c2)cs1 [Example 4-12, 2-(acetylamino)-N-(1-cyclobutyl-1H-pyrazol-4-yl)-1,3-thiazole-4-carboxamide] | 6.18 |
| O=C(Nc1cnn(CC2CCC2)c1)c1cccc(-c2cnn3c2CCCC3)n1 [Example 9-13, N-[1-(cyclobutylmethyl)-1H-pyrazol-4-yl]-6-(4,5,6,7-tetrahydropyrazolo [1,5-a]pyridin-3-yl)pyridine-2-carboxamide] | 7.68 |
| O=C(Nc1cnn(CC2CCC2)c1)c1cccc(-c2cnn(C(F)F)c2)n1 [Example 9-33, N-[1-(cyclobutylmethyl)-1H-pyrazol-4-yl]-6-[1-(difluoromethyl)-1H-pyrazol-4-yl]pyridine-2-carboxamide] | 6.75 |
| Cc1nc(C(=O)Nc2cnn(C3CCC3)c2)ccc1C#N [Example 4-2, 5-cyano-N-(1-cyclobutyl-1H-pyrazol-4-yl)-6-methylpyridine-2-carboxamide] | 5.07 |
| O=C(Nc1cn(CC2CCCO2)nc1C(F)F)c1csc(-c2cn[nH]c2)n1 (centres unmarked) [Example 7-12, N-[3-(difluoromethyl)-1-(tetrahydrofuran-2-ylmethyl)-1H-pyrazol-4-yl]-2-(1H-pyrazol-4-yl)-1,3-thiazole-4-carboxamide] | 7.68 |
| CSCC1(Cn2cc(NC(=O)c3csc(-c4cn[nH]c4)n3)cn2)CCC1 [Example 1-27, N-[1-({1-[(methylsulfanyl)methyl]cyclobu-tyl}methyl)-1H-pyrazol-4-yl]-2-(1H-pyrazol-4-yl)-1,3-thiazole-4-carboxamide] | 7.77 |
| Cc1nn(C)cc1NC(=O)c1csc(-c2cn[nH]c2)n1 [Example 1-41, N-(1,3-dimethyl-1H-pyrazol-4-yl)-2-(1H-pyrazol-4-yl)-1,3-thiazole-4-carboxamide] | 7.23 |
| CC1(C)CC(Cn2cc(NC(=O)c3csc(-c4cn[nH]c4)n3)cn2)C1 [Example 1-32, N-{1-[(3,3-dimethylcyclobu-tyl)methyl]-1H-pyrazol-4-yl}-2-(1H-pyrazol-4-yl)-1,3-thiazole-4-carboxamide] | 8.00 |
| O=C(Nc1cnn(Cc2ccc(F)cc2)c1)c1coc(-c2cn[nH]c2)n1 [Example 1-45, N-[1-(4-fluorobenzyl)-1H-pyrazol-4-yl]-2-(1H-pyrazol-4-yl)-1,3-oxazole-4-carboxamide] | 6.77 |
| COc1nn(C)cc1NC(=O)c1csc(-c2cn[nH]c2)n1 [Example 1-14, N-(3-methoxy-1-methyl-1H-pyrazol-4-yl)-2-(1H-pyrazol-4-yl)-1,3-thiazole-4-carboxamide] | 7.13 |
